Molecular target: AMPA ((RS)-α-amino-3-hydroxy-5-methyl-4-isoxazolepropionic acid) binding site
Experiment: AMPA binding assay (T. Honoré et al., Neuroscience Letters 54, 27-32 (1985))
Conditions: AMPA binding assay as described by T. Honoré et al.; read-out: IC₅₀
Procedure: In the same assay 8-Methyl-5,7,8,9-tetrahydro-1H-pyrrolo[3,2-h]isoquinoline-2,3-dione-3-oxime has an IC₅₀ of 0.2 µM.

| SMILES | IC50 |
| --- | --- |
| CN1CC=C2C(=C3NC(=O)C(=NO)C3=CC2S(=O)(=O)N(C)C)C1 (centres unmarked) [Example 6, 5-dimethylsulfamoyl-8-Methyl-5,7,8,9-tetrahydro-1H-pyrrolo[3,2-h]isoquinoline-2,3-dione-3-oxime] | 0.4 µM |
| CN1CC=C2CC=C3C(=NO)C(=O)NC3=C2C1 [Example 7, 8-Methyl-5,7,8,9-tetrahydro-1H-pyrrolo[3,2-h]isoquinoline-2,3-dione-3-oxime] | 0.2 µM |

— EP0633262A1, “Novel isatineoxime derivatives, their preparation and use” (NEUROSEARCH A/S, priority 1993, dated 1995)
